# Measured values: patent US20220169632A1, “METHODS AND MATERIALS FOR INCREASING OR MAINTAINING NICOTINAMIDE MONONUCLEOTIDE ADENYLYL TRANSFERASE-2 (NMNAT2) POLYPEPTIDE LEVELS” (University of Pittsburgh - Of the Commonwealth System of …, priority 2019, published 2022)
# Test system: NMNAT2
# Assay: NMNAT2-Hibit nano-luciferase activity in transfected U87MG cells, 25 μM, 24 hours
# Format: cell-based
# Details: NMNAT2-Hibit luc plasmid, 24 hours (Table B)
# Description: Selected compounds were tested in vitro. Briefly, U87MG cells were transfected with NMNAT2-Hibit luc plasmid. Cells were treated with a test compound at 25 μM for 24 hours. Cells were then collected and assayed for nano-luciferase activity.
row,SMILES,B: compound efficacy (IC50) for NMNAT2 activation; increase in NMNAT2 luciferase activity
1,O=C(NCc1noc2ccccc12)Nc1cccc(C(F)(F)F)c1 [Compound 181002],+ (“+” <20% increase in NMNAT2 luciferase activity.)
2,Cc1cc(Br)ccc1NC(=O)NCc1noc2ccccc12 [Compound 181007],+ (“+” <20% increase in NMNAT2 luciferase activity.)
3,Cc1ccc2onc(CNC(=O)NC(C)c3ccccc3)c2c1 (stereo not shown) [Compound 181090],+ (“+” <20% increase in NMNAT2 luciferase activity.)
4,Cc1ccc(Cl)cc1N(C)C(=O)NCc1noc2ccccc12 [Compound 181011],+ (“+” <20% increase in NMNAT2 luciferase activity.)
5,O=C(NCc1noc2ccccc12)Nc1ccc(Cl)cc1 [Compound 181028],+ (“+” <20% increase in NMNAT2 luciferase activity.)
6,Cc1ccc2onc(CNC(=O)NCc3ccccc3)c2c1 [Compound 181092],+ (“+” <20% increase in NMNAT2 luciferase activity.)
7,Cc1ccc(CCNC(=O)NCc2noc3ccccc23)cc1 [Compound 181030],+ (“+” <20% increase in NMNAT2 luciferase activity.)
8,Cc1ccc2onc(CNC(=O)NC3CCN(Cc4ccccc4)CC3)c2c1 [Compound 181065],+ (“+” <20% increase in NMNAT2 luciferase activity.)
9,COCCCNC(=O)NCc1noc2ccc(C)cc12 [Compound 181048],++ (“++” >20% and <100% increase in NMNAT2 luciferase activity.)
10,CCn1c2ccccc2c2cc(NC(=O)NCc3noc4ccc(C)cc34)ccc21 [Compound 181064],+ (“+” <20% increase in NMNAT2 luciferase activity.)
11,Cc1cccc(N(C)C(=O)NCc2noc3ccccc23)c1 [Compound 181018],+ (“+” <20% increase in NMNAT2 luciferase activity.)
12,Cc1ccc2onc(CNC(=O)Nc3ccccc3C)c2c1 [Compound 181074],+ (“+” <20% increase in NMNAT2 luciferase activity.)
13,CN(C(=O)NCc1noc2ccccc12)c1ccc(F)cc1 [Compound 181032],+ (“+” <20% increase in NMNAT2 luciferase activity.)
14,CCOc1ccccc1CNC(=O)NCc1noc2ccccc12 [Compound 181020],+ (“+” <20% increase in NMNAT2 luciferase activity.)
15,Cc1cc(C)cc(NC(=O)NCc2noc3ccc(C)cc23)c1 [Compound 181091],+ (“+” <20% increase in NMNAT2 luciferase activity.)
16,CC(C)c1ccc(NC(=O)NCc2noc3ccccc23)cc1 [Compound 181010],+ (“+” <20% increase in NMNAT2 luciferase activity.)
17,Cc1ccc2onc(CNC(=O)NCc3cccc(Cl)c3)c2c1 [Compound 181077],++ (“++” >20% and <100% increase in NMNAT2 luciferase activity.)
18,Cc1ccc(NC(=O)NCc2noc3ccccc23)c(Br)c1 [Compound 181003],+ (“+” <20% increase in NMNAT2 luciferase activity.)
19,CC(=O)c1cccc(NC(=O)NCc2noc3ccc(C)cc23)c1 [Compound 181084],+ (“+” <20% increase in NMNAT2 luciferase activity.)
20,Cc1ccc2onc(CNC(=O)NC3CCCCCC3)c2c1 [Compound 181049],+ (“+” <20% increase in NMNAT2 luciferase activity.)
21,Cc1ccc2onc(CNC(=O)Nc3ccc(F)c(Cl)c3)c2c1 [Compound 181040],+ (“+” <20% increase in NMNAT2 luciferase activity.)
22,COc1ccc(CNC(=O)NCc2noc3ccc(C)cc23)cc1 [Compound 181060],++ (“++” >20% and <100% increase in NMNAT2 luciferase activity.)
23,O=C(NCc1noc2ccccc12)Nc1ccc(F)c(Cl)c1 [Compound 181005],+ (“+” <20% increase in NMNAT2 luciferase activity.)
24,COc1ccccc1CNC(=O)NCc1noc2ccc(C)cc12 [Compound 181044],+ (“+” <20% increase in NMNAT2 luciferase activity.)
25,Cc1ccc2onc(CNC(=O)NC3CC3)c2c1 [Compound 181063],+ (“+” <20% increase in NMNAT2 luciferase activity.)
26,Cc1cc(C)cc(NC(=O)NCc2noc3ccccc23)c1 [Compound 181035],+ (“+” <20% increase in NMNAT2 luciferase activity.)
27,O=C(NCc1cccc(Cl)c1)NCc1noc2ccccc12 [Compound 181025],+ (“+” <20% increase in NMNAT2 luciferase activity.)

# Same assay, conditions: NMNAT2-Hibit luc plasmid, 24 hours (Table C)
row,SMILES,C: Compound efficacy for NMNAT2 activation; increase in NMNAT2 luciferase activity
1,Cc1cc2ccccc2n1CC(=O)NCc1ccco1 [Compound 181144],+ (“+” <20% increase in NMNAT2 luciferase activity.)
2,Cc1cc2ncn(CC(=O)NCc3ccco3)c2cc1C [Compound 181159],+ (“+” <20% increase in NMNAT2 luciferase activity.)
3,COc1cccc(CNC(=O)Cn2c(C)cc(C)c(C#N)c2=O)c1 [Compound 181125],+ (“+” <20% increase in NMNAT2 luciferase activity.)
4,Cc1cc(C)n(CC(=O)NCc2ccc(Cl)cc2)c(=O)c1C#N [Compound 181122],+ (“+” <20% increase in NMNAT2 luciferase activity.)
5,CCn1cc(CCC(=O)NCc2ccco2)c2ccccc21 [Compound 181115],+ (“+” <20% increase in NMNAT2 luciferase activity.)
6,Cc1ccc2c(c1)n(CC(=O)NCc1ccco1)c(=O)c1cccn12 [Compound 181113],+ (“+” <20% increase in NMNAT2 luciferase activity.)
7,COc1cccc2ccn(CC(=O)NCc3ccco3)c12 [Compound 181146],+ (“+” <20% increase in NMNAT2 luciferase activity.)
8,Cc1cc2c(=O)n(CC(=O)NCc3ccco3)ccc2s1 [Compound 181140],+ (“+” <20% increase in NMNAT2 luciferase activity.)
9,O=C(NCCn1ccc2ccc(Cl)cc21)c1ccco1 [Compound 181156],+ (“+” <20% increase in NMNAT2 luciferase activity.)
10,CCC(=O)c1cn(CC(=O)NCc2ccco2)c2ccccc12 [Compound 181108],+ (“+” <20% increase in NMNAT2 luciferase activity.)
